Measured values published in patent US5866588A, “Imidazopyridine derivatives” (British Biotech Pharmaceuticals Ltd., priority 1995, dated 1999).

Key:
[1] = target: T1, histamine-1 receptors on Hela-S3 cells (Homo sapiens, UniProt P35367); test: Inhibition of [^3 H]-Pyrilamine Binding to Histamine-1 Receptors on Hela-S3 Cells; details: 0.5 h; 1 μM test compound; [^3 H]-pyrilamine remaining specifically bound; 37° C., 30 minutes; read-out: % Specific Binding at 1 μM
T1 construct: histamine-1 receptors on Hela-S3 cells (American Type Culture Collection); host or cells: HeLa-S3 cells (intact cell suspension)
T1 sequence (P35367 whole entry): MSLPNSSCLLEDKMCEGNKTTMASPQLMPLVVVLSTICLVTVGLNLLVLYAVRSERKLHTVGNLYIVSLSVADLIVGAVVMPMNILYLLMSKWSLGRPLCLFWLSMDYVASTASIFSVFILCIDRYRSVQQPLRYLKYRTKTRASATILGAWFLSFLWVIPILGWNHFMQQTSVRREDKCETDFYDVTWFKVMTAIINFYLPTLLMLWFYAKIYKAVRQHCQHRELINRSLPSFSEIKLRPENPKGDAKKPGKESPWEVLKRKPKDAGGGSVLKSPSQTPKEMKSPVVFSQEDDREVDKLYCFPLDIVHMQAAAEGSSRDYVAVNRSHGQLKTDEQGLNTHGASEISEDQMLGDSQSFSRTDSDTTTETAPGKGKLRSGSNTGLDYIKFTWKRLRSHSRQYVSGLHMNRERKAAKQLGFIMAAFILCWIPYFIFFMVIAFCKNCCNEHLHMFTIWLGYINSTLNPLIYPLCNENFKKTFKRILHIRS
Procedure: Inhibition of [^3 H]-Pyrilamine Binding to Histamine-1 Receptors on Hela-S3 Cells
The inhibition of [^3 H]-pyrilamine binding to histamine-1 receptors on Hela-S3 cells (American Type Culture Collection) was determined by isotopic labelling and filtration techniques. A suspension of the cells in buffer (25 ml, 0.5% Bovine Serum Albumin, 0.1% sodium azide, phosphate buffered saline (PBS)) was centrifuged at 1000 rpm for 5 minutes in a JOUAN CR 422 centrifuge, collected, resuspended in buffer (25 ml) and spun again. The cells were counted using a haemocytometer and resuspended in buffer to provide a final concentration of 4.5×10^6 cells ml^-1. A portion of the Hela-S3 cell suspension (1 ml) was added to each assay tube containing 25 μl of vehicle (50% DMSO/buffer) or 25 μl of test compound solution (dissolved in DMSO and diluted with sufficient PBS to give a final test concentration of 1 μM) and 25 μl of [^3 H]-pyrilamine (supplied by Amersham International and diluted with PBS to 3 nM). The tubes were mixed, incubated at 37° C. for 30 minutes and then spun at 4° C. at 2000 rpm for 2 minutes. The supernatant was removed and the cells resuspended in buffer (repeated ×2). The cells were suspended in 300 μl of a 2:1 solution of 1M sodium hydroxide and 1% sodium dodecyl sulphate. The tubes were left ovemight before the contents were tranferred to a scintillation vial, treated with 10 ml, OPTIPHASE MP scintillation fluid (OPTIPHASE MP is a trade mark) and the radioactivity counted in a scintillation counter. Non-displacable binding (NDB) was determined using Astemizole (5×10^-5 M) in place of test compounds. Defining the counts for total binding from the vehicle control sample as "TB" and the counts for total binding with antogonist as "TBA" the percentage specific binding (% SB) can be determined from the following equation.

[2] = tested on: Histamine Induced Bronchoconstriction; test: Histamine Induced Bronchoconstriction in the Anaesthetised Guinea Pig; type: in vivo, guinea pig (Dunkin-Hartley); details: p.o.; for ED50: Cavia porcellus, po, 1 h, histamine infusion 10 μgkg^-1 min^-1 one hour after dosing
Excerpt: Histamine Induced Bronchoconstriction in the Anaesthetised Guinea Pig
(§1) Following oral administration of test compound or vehicle by oral gavage, male Dunkin-Hartley guinea pigs (350-400 g) were anaesthetised by intraperitoneal injection of 60 mgkg^-1 sodium pentobarbitone (Sagatal, May & Baker UK). Through a midline incision of the neck, the trachea was cannulated and connected to a small animal respirator (Harvard, UK). Animals were artificially ventilated at a rate of 30 breaths per minute with a tidal volume of 8-10 ml to give a resting tracheal inflation pressure of 15 mmHg as measured by a physiological pressure transducer (type P23XL, Spectramed USA) connected to a side arm of the respiratory circuit.
A jugular vein was cannulated for the administration of propranolol and for the infusion of histamine. A carotid artery was cannulated for the measurement of arterial blood pressure via a physiological pressure transducer (type P23XL, Spectramed USA). Blood pressure and tracheal inflation pressure were recorded on a thermal array chart recorder (type TA4000, Gould Electronics UK).
Following a suitable equilibration period, propranolol (1 mgkg^-1 i.v. & 3 mgkg^-1 s.c. Sigma Chemical Co. UK) was administered to inhibit any resulting catecholamine release following histamine administration.
Histamine infusion (10 μgkg^-1 min^-1 at a rate of 10 mlhr^-1 using a perfusion pump type Perfuser securer FT, B. Braun Germany) was started at the one hour time point following oral administration of the test compound or vehicle. Changes in tracheal inflation pressure and blood pressure of drug treated animals were compared with changes from vehicle treated animals and ED50 values determined. One dose of test compound was investigated per animal.

[3] = tested on: PAF-Induced Platelet Aggregation; test: Inhibition of PAF-Induced Platelet Aggregation; type: cell-based, rabbit (New Zealand White); details: Oryctolagus cuniculus; rabbit platelet-rich plasma, PAF 100 ngml^-1
Procedure: Inhibition of PAF-Induced Platelet Aggregation
Male New Zealand White rabbits (3.0-3.5 kg) were anaesthetised by intravenous administration of sodium pentobarbitone, 18 mg.ml^-1, via a marginal ear vein. The trachea was exposed and connected to a respiratory pump (Harvard UK) to provide artificial ventilation. A carotid artery was exposed and cannulated and the animal was exsanguinated. Whole blood was collected in a syringe containing tri-sodium citrate (3.8% w/v) to a ratio of 1 part citrate:9 parts blood.
Collected blood was centrifuged at 180×g for 15 minutes at room temperature (21° C.) to prepare platelet-rich plasma (PRP). The remaining blood was then centrifuged at 1800×g for 10 minutes at room temperature to obtain platelet poor plasma (PPP).
Platelet count of the PRP was measured using a Technicon H1 blood cell differential analyser (Bayer Diagnostics UK) and adjusted with PPP to obtain a final platelet count of 500,000 platelets per μl of plasma, this being the normal physiological platelet count for rabbits. Corrected PRP was left to equilibrate at room temperature for 30 minutes before use.
Aggregation studies were carried out using a 4-channel aggregometer (PAP-4C, BioData USA) as follows: 400 μl aliquots of PRP were placed in siliconised cuvettes and incubated to 37° C. for 1 to 2 minutes in the heating block of the aggregometer. Baseline (100% aggregation) was set up using PPP (500 μl in a siliconised cuvette). The PRP was placed into a measuring well of the aggregometer, and a stirrer bar was added. The sample was stirred at 1000 rpm. The machine was activated to set the 0% aggregation level. Test compound or vehicle (50 μl) was added to the PRP, where any effects on the baseline was noted. PAF (100 ngml^-1 as 50 μl aliqout) was added to the PRP 3 minutes after test compound or vehicle. Aggregation was measured for a further 4 minutes after PAF addition and the maximum aggregation over the 4 minutes was recorded.
The investigation of different concentrations of test compound was performed in triplicate. Data were expressed as […] of the sample and test compound data were compared to vehicle data to obtain % inhibition of the PAF-induced aggregation from which IC50 values could be determined.
PAF was made up in sterile saline (NaCl 0.9% w/v) containing BSA (0.25% w/v) from an initial stock solution (10 mgml^-1 in EtOH). Test compounds were made up as 1×10^-3 M stock solutions in sterile saline containing molar equivalents of 1N HCl (v/v) or in DMSO.
In the results which follow, a comparison compound A was included. Compound A was prepared as described in EP-A-260613 (G. D. Searle), but is not part of the present invention. As appears from the results of the comparison, compounds of this invention, all of which incorporate a fragment capable of H1 antagonist activity, are observed to show improved PAF antagonist activity over compound A.

[4] = tested on: PAF Induced Bronoconstriction; test: PAF Induced Bronoconstriction in the Anaesthetised Guinea Pig; type: in vivo, guinea pig (Dunkin-Hartley); details: Cavia porcellus, po, 1 h; p.o.; PAF 100 ngkg^-1 i.v. bolus one hour after dosing; read-out: ED50 (PAF induced bronchoconstriction)
Procedure: PAF Induced Bronoconstriction in the Anaesthetised Guinea Pig
as §1, with “or vehicle,” for “or vehicle by oral gavage,”, “(Harvard, UK)” for “(Harvard, UK).”, “tidal” for “tidal volume”
A jugular vein was cannulated for the administration of a bolus dose of propranolol and for the later administration of bolus PAF. A carotid artery was cannulated for the measurement of arterial blood pressure via a physiological pressure transducer (type P23XL, Spectramed USA). Blood pressure and tracheal inflation pressure were recorded on a thermal array chart recorder (type TA4000, Gould Electronics UK).
Propranolol (1 mgkg^-1 i.v. & 3 mgkg^-1 s.c. Sigma Chemical Co. UK) was administered 10 minutes before PAF in order to prevent the bronchodilatory activity of catecholamines which may be released in response to PAF administration. PAF (100 ngkg^-1 i.v. bolus) was administered at the one hour time point following oral administration of the test compound or vehicle.
Changes in tracheal inflation pressure and blood pressure of drug treated animals were compared with changes from vehicle treated animals and percentage inhibition determined. One dose of test compound was investigated per animal.

Structure (SMILES) | activity at 1 µM [1] | % inhibition (histamine induced bronchoconstriction) ([2]; 10 mg/kg, histamine infusion one hour after dosing) | IC50 [3] | ED50 [4] | ED50 [2]
CCCN(C/C=C/c1cccc(/C(=C/CN2CCCC2)c2ccc(C)cc2)n1)C(=O)c1ccc(Cn2c(C)nc3cnccc32)cc1 [Example 16, N-Propyl-4-(1H-2-methylimidazo[4,5-c]pyridin-1-ylmethyl)-N-{3-[6-(3-pyrrolidin-1-yl-1-{4-tolyl}-prop-1E-enyl)-pyridin-2-yl]-prop-2E-enyl}-benzamide] | 30% | 46% | 130 nM | 1.55 mg/kg | –
CCN(C/C=C/c1cccc(/C(=C/CN2CCCC2)c2ccc(C)cc2)n1)C(=O)c1ccc(Cn2c(C)nc3cnccc32)cc1 [Example 13, N-Ethyl-4-(1H-2-methylimidazo[4,5-c]pyridin-1-ylmethyl)-N-{3-[6-(3-pyrrolidin-1-yl1-{4-tolyl}-prop-1E-enyl)-pyridin-2-yl]-prop-2E-enyl}-benzamide] | 30% | – | 238 nM | 2.55 mg/kg | 1 mg/kg
Cc1ccc(/C(=C\CN2CCCC2)c2cccc(/C=C/CN(C(=O)c3ccc(Cn4c(C)nc5cnccc54)cc3)C3CCCCC3)n2)cc1 [Example 4, N-Cyclohexyl-4-(1H-2-methylimidazo[4,5-c]pyridin-1-ylmethyl)-N-{3-[6-(3-pyrrolidin-1-yl-1-{4-tolyl}-prop-1E-enyl)-pyridin-2-yl]-prop-2E-enyl}-benzamide] | 42% | – | 167 nM | 1.55 mg/kg | 0.85 mg/kg
Cc1nc2cnccc2n1Cc1ccc(C(=O)N(C/C=C/c2cccc(/C(=C/CN3CCCC3)c3ccc(Cl)cc3)n2)C2CCCCC2)cc1 [Example 20, N-Cyclohexyl-4-(1H-2-methylimidazo[4,5-c]pyridin-1-ylmethyl)-N-{3-[6-(3-pyrrolidin-1-yl-1-{4-chlorophenyl}-prop-1E-enyl)-pyridin-2-yl]-prop-2E-enyl}-benzamide] | – | – | – | 4.2 mg/kg | 1 mg/kg
Cc1ccc(/C(=C\CN2CCCC2)c2cccc(/C=C/CN(C)C(=O)c3ccc(Cn4c(C)nc5cnccc54)cc3)n2)cc1 [Example 3, N-Methyl-4-(1H-2-methylimidazo[4,5-c]pyridin-1-ylmethyl)-N-{3-[6-(3-pyrrolidin-1-yl-1-{4-tolyl}-prop-1E-enyl)-pyridin-2-yl]-prop-2E-enyl}-benzamide] | 19% | – | 1480 nM | 5.8 mg/kg | 0.4 mg/kg
